Results reported in publication PMC8201479, “Trisubstituted Pyrrolinones as Small-Molecule Inhibitors Disrupting the Protein–RNA Interaction of LIN28 and Let-7” (ACS Medicinal Chemistry Letters, 2021).

Target: T1, LIN28–let-7 interaction (Homo sapiens, UniProt Q9H9Z2)
T1 construct: Purified LIN28A (residues 16–187) was incubated at a concentration of 200 nM; His-tag (cleaved yes); made in house; host or cells: Escherichia coli BL21(DE3)
T1 sequence (Q9H9Z2 16-187): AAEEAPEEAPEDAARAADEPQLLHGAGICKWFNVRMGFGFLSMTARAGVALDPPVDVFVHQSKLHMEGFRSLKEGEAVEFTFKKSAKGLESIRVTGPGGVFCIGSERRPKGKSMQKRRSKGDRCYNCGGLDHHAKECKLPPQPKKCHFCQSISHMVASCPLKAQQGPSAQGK
Assay: Fluorescence polarization (FP) assay, LIN28A (residues 16–187) and FAM-labeled preE-let-7f-1
Assay type: binding
Settings: for FP, Average (mP): raw data Table S3, four replicates

O=C(C1=C(O)C(=O)N(c2ccc(O)c(C(=O)O)c2)C1c1ccc(-c2nccs2)cc1)c1ccc(Br)cc1 (stereo not drawn) [C902/PH-31]
IC50 (Table 1, quadruplicate, starting from a maximum concentration of 60 μM, eight concentrations, read-out: IC50, LIN28–let-7 inhibitory activity): 5 µM
FP, Average (mP) (0.041 μM compound): 109.25 mP
FP, Average (mP) (0.123 μM compound): 110.00 mP
FP, Average (mP) (0.368 μM compound): 113.50 mP
FP, Average (mP) (1.103 μM compound): 105.75 mP
FP, Average (mP) (3.125 μM compound): 75.05 mP
FP, Average (mP) (9.375 μM compound): 64.03 mP
FP, Average (mP) (29.688 μM compound): 43.05 mP
FP, Average (mP) (59.375 μM compound): 38.75 mP
